Measured values as given in patent US20110257176A1, “NITROGEN HETEROCYCLE DERIVATIVES AS PROTEASOME MODULATORS” (INSTITUT NATIONAL DE LA SANTE ET DE LA RECHERCHE MEDICALE …, priority 2008, published 2011).
Where a SMILES comes first, the peptide text is derived from it. The star is where a group is joined. Cbz = O=C(OCc1ccccc1)*

How the values were obtained:
[1] = test system: rabbit reticulocyte 20S proteasome, trypsin-like (T-L) activity; assay: 20S proteasome trypsin-like (T-L) activity, Boc-LRR-AMC hydrolysis; type: biochemical; set-up: key to Inhibition of trypsin-like activity (NI): NI: No Inhibition; conditions: rabbit 20S proteasome; for Inhibition of trypsin-like activity (NI): screened at 100 μM and 50 μM
Protocol: (§1) Rabbit erythrocyte 20S proteasome was obtained from Boston Biochem, Cambridge, USA. The fluorogenic substrates Suc-LLVY-AMC, Boc-LRR-AMC and Z-LLE-βNA used to measure the proteasome activities CT-L, T-L and PA respectively were purchased from Bachem (France). Other reagents and solvents were purchased from commercial sources. Fluorescence was measured using a BMG Fluostar microplate reader.
(§2) Compounds 1-23 were tested for their potential to inhibit the CT-L, T-L and PA activities of the rabbit reticulocyte 20S proteasome. Enzyme activities were determined by monitoring the hydrolysis of the appropriate fluorogenic substrate (λexc=360, λem=465 nm for AMC substrates, and λexc=340, λem=405 nm for the βNA substrate) for 1 h at 37° C.
(§3) In the in vitro screening, each compound was tested in duplicate against the three activities, at 100 μM and 50 μM in the corresponding buffer. The buffer were (pH 8): 50 mM Tris, 150 mM NaCl, 10% (v/v) glycerol, 0.025% (w/v) SDS, and 3% (v/v) DMSO (CT-L and PA activities); 50 mM Tris, 150 mM NaCl, 10% (v/v) glycerol, and 3% (v/v) DMSO (T-L activity).
(§4) The inhibitory activity of compounds is expressed as IC50, which corresponds to the concentration of proteasome inhibitor leading to a loss of activity of 50%. The values of IC50 were calculated by fitting the experimental data to equation 1: % Inhibition=100×(1−Vi/V0)=100 [I]0/(IC50+[I]0), or equation 2: % Inhibition=100 [I]0^nH/(IC50^nH+[I]0^nH), where Vi is the initial rate in the presence of the inhibitor, V0 is the initial rate in the absence of the inhibitor, [I]0 is the inhibitor concentration, nH is the Hill number (FIG. 1).

[2] = molecular target: T1, rabbit reticulocyte 20S proteasome, chymotrypsin-like (CT-L) activity (UniProt G1T4Q9); assay: 20S proteasome chymotrypsin-like (CT-L) activity, Suc-LLVY-AMC hydrolysis; type: biochemical; conditions: rabbit 20S proteasome, pH 8, 37° C.
T1 construct: IC50 on chymotrypsin-like activity; other: rabbit 20S proteasome, pH 8, 37° C; Rabbit erythrocyte 20S proteasome was obtained from Boston Biochem, Cambridge, USA
Protocol: as §1, §2, §3, §4

[3] = test system: HeLa cells; assay: Cell viability, XTT assay, HeLa; type: cell-based; conditions: Homo sapiens, 48 h, read-out: EC50, concentration inhibiting cell growth by 50%
Protocol: (§5) The cell survival was determined with the XTT assay. Human cells (HeLa from cervical carcinoma and HEK-293 from epithelial kidney) were obtained from Invitrogen (Cergy-Pontoise, France). The cells were grown at 37° C. in DMEM supplemented with 10% fetal bovine serum (Invitrogen) in a humidified atmosphere of 5% CO2 and 95% air.
(§6) 5×10^3 cells in 100 μL culture medium were exposed for 48 h in 96-well plates to increasing concentrations of compounds: 5-100 μM, final concentration of DMSO is 1% (v/v). The culture medium is then replaced by 100 μL of DMEM F12 culture medium devoid of phenol red and containing a mixture of XTT (0.3 mg/mL) and PMS (8.3 nM) (XTT: 2,3-bis[2-methoxy-4-nitro-5-sulfophenyl-2H-tetrazolium-5-carboxyanilide sodium; PMS: phenazine methosulfate, both purchased from Sigma, Saint Quentin Fallavier, France). Cells were then incubated for 3 h at 37° C.
(§7) During this incubation, the mitochondrial deshydrogenases of viable cells hydrolyzed the tetrazolium cycle of XTT, leading to orange formazan crystals soluble in aqueous solution.
(§8) The orange color was measured at 485 nm using a BMG Fluostar microplate reader.
(§9) In control experiments, cells were treated by the vehicule (DMSO) at the same concentration than that used for the inhibitors.
The cytotoxicity activity of drags was expressed as the concentration inhibiting cell growth by 50% (EC50) calculated from the survival curves. […]

[4] = molecular target: rabbit reticulocyte 20S proteasome, post-acid (PA) activity (Oryctolagus cuniculus, UniProt G1T235); assay: 20S proteasome post-acid (PA) activity, Z-LLE-βNA hydrolysis; type: biochemical; set-up: key to Inhibition of post-acid activity (NI): NI: No Inhibition; conditions: rabbit 20S proteasome; for Inhibition of post-acid activity (NI): screened at 100 μM and 50 μM
rabbit reticulocyte 20S proteasome, post-acid (PA) activity, sequence (G1T235 entry or part of it): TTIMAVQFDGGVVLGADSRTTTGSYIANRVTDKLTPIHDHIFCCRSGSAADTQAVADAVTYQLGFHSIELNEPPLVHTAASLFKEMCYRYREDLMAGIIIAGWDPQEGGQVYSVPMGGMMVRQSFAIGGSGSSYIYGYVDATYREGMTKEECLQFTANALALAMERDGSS
Protocol: as §1, §2, §3, §4

[5] = molecular target: human cathepsin B (Homo sapiens, UniProt P07858); assay: Selectivity: inhibition of cathepsin B; type: biochemical; conditions: 100 μM compound
[6] = molecular target: T2, rabbit reticulocyte 20S proteasome, chymotrypsin-like (CT-L) activity (Oryctolagus cuniculus, UniProt G1T4Q9); assay: 20S proteasome chymotrypsin-like (CT-L) activity, Suc-LLVY-AMC hydrolysis; type: biochemical; conditions: rabbit 20S proteasome, pH 8, 37° C.
T2 construct: IC50 on chymotrypsin-like activity; other: rabbit 20S proteasome, pH 8, 37° C; Rabbit erythrocyte 20S proteasome was obtained from Boston Biochem, Cambridge, USA
T2 sequence (G1T4Q9 1-263): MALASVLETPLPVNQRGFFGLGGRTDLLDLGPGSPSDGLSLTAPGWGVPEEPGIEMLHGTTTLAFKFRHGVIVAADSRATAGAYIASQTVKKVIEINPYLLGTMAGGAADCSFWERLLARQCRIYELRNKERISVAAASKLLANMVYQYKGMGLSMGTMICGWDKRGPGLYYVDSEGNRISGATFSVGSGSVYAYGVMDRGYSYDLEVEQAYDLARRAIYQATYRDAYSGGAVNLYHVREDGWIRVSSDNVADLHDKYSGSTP
Protocol: as §1, §2, §3, §4

[7] = test system: HEK-293 cells; assay: Cell viability, XTT assay, HEK-293; type: cell-based; conditions: Homo sapiens, HEK293, 48 h, read-out: EC50, concentration inhibiting cell growth by 50%
Protocol: as §5, §6, §7, §8, §9
The cytotoxicity activity of drags was expressed as the concentration inhibiting cell growth by 50% (EC50) calculated from the survival curves. The experimental data are fitted to the following equation, describing the relationship between % survival and drug concentration (C):
% cell survival=100−(Emax×C^n)/(C^n+EC50^n)
where C is the drug concentration; Emax is the maximum drug effect (%); EC50 is the concentration that produces one-half of the maximum effect; and n is the Hill constant, which describes the shape of the curve.

[8] = molecular target: T3, human erythrocyte 20S proteasome, chymotrypsin-like (CT-L) activity (Homo sapiens, UniProt P28074); assay: 20S proteasome chymotrypsin-like (CT-L) activity, Suc-LLVY-AMC hydrolysis; type: biochemical; conditions: pH 7.5
T3 construct: three activities of human erythrocyte 20S proteasome; from tissue; host or cells: human erythrocytes
Protocol: as §1, §4
(§10) Compounds 24, 25 and 31-35 were tested in duplicate against three activities of human erythrocyte 20S proteasome at 100 and 50 μM in the appropriate buffer (pH 7.5): 20 mM Tris HCl, 10% (v/v) glycerol, 0.01% (w/v) SDS and 2% DMSO (CT-L and PA activities); 20 mM Tris HCl, 10% (v/v) glycerol, and 2% DMSO (T-L activity). The inhibitory activities were analyzed as described above for compounds 1-23.

[9] = molecular target: T4, human erythrocyte 20S proteasome, trypsin-like (T-L) activity (Homo sapiens, UniProt Q99436); assay: 20S proteasome trypsin-like (T-L) activity, Boc-LRR-AMC hydrolysis; type: biochemical; set-up: key to Inhibition of trypsin-like activity (NI): NI: No Inhibition; conditions: screened at 100 and 50 μM
T4 construct: three activities of human erythrocyte 20S proteasome; from tissue; host or cells: human erythrocytes
Protocol: as §1, §4, §10

[10] = molecular target: T5, human erythrocyte 20S proteasome, post-acid (PA) activity (Homo sapiens, UniProt P28072); assay: 20S proteasome post-acid (PA) activity, Z-LLE-βNA hydrolysis; type: biochemical; set-up: key: NI: No Inhibition; conditions: screened at 100 and 50 μM
T5 construct: three activities of human erythrocyte 20S proteasome; from tissue; host or cells: human erythrocytes
Protocol: as §1, §4, §10

[11] = test system: cellular proteasome in HEK-293 cells; assay: Inhibition of proteasome in a cell assay: accumulation of ubiquitinylated proteins (Western blot); type: cell-based, Human; conditions: 16 h, 10 μM
Protocol: Indeed, if the proteasomes are inhibited, in particular the proteasome 26S, the degradation of ubiquitinalyted proteins should be blocked, and those proteins should accumulate.
240 000 HEK-293 cells were incubated for 16 h, in presence of oxadiazole derivatives at the concentration of 10 μM.
After extraction of the proteins (centrifugation of lysed cells), the concentration of proteins in the sample was determined with the BCA (Bicinchoninic Acid) protein Assay.
3 μg of proteins for each sample were deposited into a SDS-PAGE gel at 8%.

Row | SMILES | Inhibition of trypsin-like activity (NI) [1] | IC50 [2] | Inhibition of post-acid activity (NI) [4] | EC50 [7] | also measured
1 | Cc1cccc(-c2noc(CN(C(=O)COc3ccc(C(C)C)cc3)C(C)C)n2)c1 [Compound 2] | NI | ~1 µM | NI | – | EC50 [3]: 32 ± 3.6 µM
2 | COc1ccc(-c2noc(CN(C(=O)COc3cccc(C)c3)C(C)C)n2)cc1 [Compound 13] | – | 2.33 ± 0.28 µM | NI | – | Inhibition of human cathepsin B (in words) [5]: no inhibition; % inhibition (inhibitor concentration) on trypsin-like activity ([1]; 100 μM inhibitor): 28% (100 μM)
3 | Cc1ccc(-c2noc(CN(C(=O)COc3ccc(C(C)C)cc3)C(C)C)n2)cc1 [Compound 1] | NI | ~7 µM | NI | – | EC50 [3]: 44 ± 3.8 µM
4 | O=C(Cc1cccc2ccccc12)Nc1cccc(-c2nnc(-c3ccccc3)o2)c1 [Compound 21] | NI | – | – | 26 ± 2.3 µM | IC50 [6]: 144 ± 22 µM; inhibition at 100 µM ([4]; 100 μM inhibitor, read-out: % inhibition (inhibitor concentration) on post-acid activity): 22%
5 | CC(C)N(Cc1nc(CCl)no1)C(=O)COc1ccc(Br)cc1 [Compound 31] | – | – | – | 16.1 ± 0.5 µM | IC50 [8]: 2.69 ± 0.22 µM; Inhibition of trypsin-like activity (NI) [9]: NI; Inhibition of post-acid activity (NI) [10]: NI
6 | CC(C)C[C@@H](C=O)NC(=O)[C@H](CC(C)C)NC(=O)[C@H](CC(C)C)NC(=O)OCc1ccccc1 [MG132] (Cbz-Leu-Leu-Leu-aldehyde) | – | – | – | – | Accumulation of ubiquitinylated proteins (anti-ubiquitin Western blot) [11]: induce an accumulation of ubiquitinalyted proteins
7 | C=CCOc1ccc(C(=O)N(Cc2nc(-c3ccc(OC)c(OC)c3)no2)C(C)C)cc1 [Compound 19] | – | – | NI | 39.2 ± 2 µM | Activation × of trypsin-like activity ([1]; 100 μM compound, fold activation): Activation × 11.5 (100 μM); IC50 [6]: 3.51 ± 0.12 µM
